Columns and labels:
[1] = Kinetics of the coupling reaction of iminosydnones with BCN (HPLC monitoring); format: physicochemical; details: 100 μM iminosydnone, 150 μM BCN, PBS 0.1M (pH 7.4) containing 10% DMSO
Experimental: (§1) The kinetics of the coupling reaction of different iminosydnones with two cyclic alkynes was studied, according to the following scheme.
(§2) Reactions of iminosydnones with BCN (Bicyclononyne) or TMTH were carried out in PBS/DMSO (9:1) mixtures at 100 μM concentration of sydnones and 150 μM concentration of BCN or TMTH using the following procedure:
(§3) To 900 μL of phosphate buffered saline (PBS, 100 mM) was added 87.5 μL of DMSO, 10 μL of the solution of benzamide (internal standard, 100 mM in DMSO), 1 μL of the solution of iminosydnone (100 mM in DMSO) and 1.5 μL of the solution of BCN or TMTH (100 mM in DMSO). The reaction mixture was injected in HPLC every 30 min and the conversion was followed by measuring the normalized sydnone peak area.
(§4) Second order reaction rate was determined by plotting ln([A]/[B])/([A]−[B]) versus time and analyzing by linear regression (Equation). Second order rate constant corresponds to the determined slope.
(§5) Equation. [A]—concentration of iminosydnones (M); [B]—concentration of BCN (M); t—reaction time (sec); k—reaction rate (M^−1·sec^−1)

[2] = Kinetics of the coupling reaction of iminosydnones with TMTH (HPLC monitoring); format: physicochemical; details: 100 μM iminosydnone, 150 μM TMTH, PBS 0.1M (pH 7.4) containing 10% DMSO
Experimental: as §1, §2, §3, §4, §5

| Structure (SMILES) | K (BCN) [1] | K (TMTH) [2] |
| --- | --- | --- |
| Cc1ccc(-[n+]2cc([N-]C(=O)NCc3ccccc3)on2)cc1 [Im9] | 0.004 M⁻¹ s⁻¹ |  |
| CC(=O)[N-]c1c[n+](-c2ccccc2)no1 [Im2] | 0.002 M⁻¹ s⁻¹ | 2.2 M⁻¹ s⁻¹ |
| Cc1ccc(NC(=O)[N-]c2c[n+](-c3ccc(C(=O)O)cc3)no2)cc1 [Im7] | 0.108 M⁻¹ s⁻¹ | 61.2 M⁻¹ s⁻¹ |
| Cc1ccc(-[n+]2cc([N-]C(=O)OCc3ccccc3)on2)cc1 [Im11] | 0.026 M⁻¹ s⁻¹ |  |
| CCOC(=O)c1ccc(NC(=O)[N-]c2c[n+](-c3ccc(O)cc3)no2)cc1 [Im8] | 0.008 M⁻¹ s⁻¹ | 2.5 M⁻¹ s⁻¹ |
| Cc1ccc(-[n+]2cc([N-]C(=O)CCc3ccccc3)on2)cc1 [Im4] | 0.034 M⁻¹ s⁻¹ |  |
| Cc1ccc(-[n+]2noc([N-]C(=O)NCc3ccccc3)c2Br)cc1 [Im10] | 0.060 M⁻¹ s⁻¹ |  |
| Cc1ccc(NC(=O)[N-]c2c[n+](-c3ccc(O)cc3)no2)cc1 [Im6] | 0.008 M⁻¹ s⁻¹ | 4.1 M⁻¹ s⁻¹ |
| Cc1ccc(-[n+]2cc([N-]C(=O)Cc3ccccc3)on2)cc1 [Im3] | 0.004 M⁻¹ s⁻¹ |  |
| [NH-]c1c[n+](-c2ccccc2)no1 [Im1] | no reaction |  |
| Cc1ccc(NC(=O)[N-]c2c[n+](-c3ccccc3)no2)cc1 [Im5] | 0.069 M⁻¹ s⁻¹ | 43.1 M⁻¹ s⁻¹ |
| Cc1ccc(-[n+]2noc([N-]C(=O)OCc3ccccc3)c2Br)cc1 [Im12] | 0.150 M⁻¹ s⁻¹ |  |
| N#CC#Cc1ccc(NC(=O)[N-]c2c[n+](-c3ccc(C(=O)O)cc3)no2)cc1 [Im14, (3-(4-carboxyphenyl)-1,2,3-oxadiazol-3-ium-5-yl)((4-(cyanoethynyl)phenyl)carbamoyl)amide] | 0.132 M⁻¹ s⁻¹ |  |

— patent publication US20190144401A1, “IMINOSYDNONE DERIVATIVES FOR CONJUGATION AND RELEASE OF COMPOUNDS OF INTEREST” (UNIVERSITE DE STRASBOURG, priority 2014, published 2019)
